Measurements reported in patent US20130072424A1, “COMPOUNDS AND METHODS FOR PEPTIDE RIBONUCLEIC ACID CONDENSATE PARTICLES FOR RNA THERAPEUTICS” (MARINA BIOTECH, INC., priority 2005, published 2013).
Ends that are not written are not given here.

Tests used:
[1] = system: primary mouse tail fibroblast (MTF) cells; experiment: Peptide cell-uptake assay (FITC-labeled peptide, flow cytometry); assay type: cell-based; details: for Peptide FITC MFI: relative values
Method: The efficacy of the full-length and truncated forms of polypeptide PN73 to enter cells was tested in vitro by a cell-uptake assay with primary mouse tail fibroblast (MTF) cells. The number of cells in culture that receive the FITC-labeled peptide was measured by flow cytometry. The percentage peptide cell-uptake was expressed relative to the total number of cells present in the culture. In addition, the Mean Fluorescence Intensity (MFI) was used to evaluate the quantity of FITC-labeled peptide found within cells. MFI directly correlates with the amount of FITC-labeled peptide within the cell: higher relative MFI value correlates with a greater amount of intracellular FITC-labeled peptides. Peptides were evaluated at 0.63 μM, 2.5 μM and 10 μM concentrations; PN768 was tested at 2 μM, 10 μM and 50 μM. […]

[2] = system: mouse tail fibroblast (MTF) cells; experiment: siRNA cell-uptake assay and MFI (Cy5-conjugated siRNA, flow cytometry), Examples 14-16; assay type: cell-based
Method: As described above, the cell-uptake assay determines the number of cells that receive Cy5-conjugated siRNA when complexed with a peptide. siRNA cell-uptake was assessed by flow cytometry (refer to Example 2 for details). Uptake was expressed as a percentage calculated by dividing the number of cells containing Cy5-conjugated siRNA by the total number of transfected and untransfected cells in culture. Mean Fluorescence Intensity (MFI) was measured by flow cytometry and determined the amount of Cy5-conjugated siRNA found within cells. The MFI value directly correlates with the amount of Cy5-conjugated siRNA within the cell, thus, a higher MFI value indicates a greater number of Cy5-conjugated siRNA within the cells.
The siRNA cell-uptake assay and MFI measurements were performed as described previously in Examples 2 and 3. […]

hTNF-α mRNA = experiment: Knockdown of hTNF-α gene expression by siRNA/peptide complexes in LPS-stimulated human monocytes (branch DNA mRNA); assay type: cell-based; details: siRNAs A19S21, 21/21 and LC20; human monocytes
Method: Specifically, the ability of siRNA/peptide complexes to modulate expression of the human tumor necrosis factor-α (hTNF-α) gene was assessed. The significance of targeting the hTNF-α gene is that it is implicated in mediating the occurrence or progression of rheumatoid arthritis (RA) when over-expressed in human and other mammalian subjects.
Human monocytes were used as a model system to determine the effect of siRNA/peptide complexes on hTNF-α gene expression. Qneg represents a random siRNA sequence and functioned as the negative control. […] A19S21, 21/21 and LC20 are siRNAs that target hTNF-α mRNA.
Healthy human blood was purchased from Golden West Biologicals (CA), the peripheral blood mononuclear cells (PBMC) were purified from the blood using Ficoll-Pague plus (Amersham) gradient. Human monocytes were then purified from the PBMCs fraction using magnetic microbeads from Miltenyi Biotech. Isolated human monocytes were resuspended in IMDM supplemented with 4 mM glutamine, 10% FBS, 1× non-essential amino acid and 1× pen-strep, and stored at 4 C until use.
In a 96 well flat bottom plate, human monocytes were seeded at 100 K/well/100 μl in OptiMEM medium (Invitrogen). Exemplary polynucleotide delivery-enhancing polypeptides were mixed with 20 nM siRNA at a molar ratio of 1 to 5 in OptiMEM medium at room temperature for 5 minutes. At the end of incubation, FBS was added to the mixture (final 3%), and 50 μl of the mixture was added to the cells. The cells were incubated at 37° C. for 3 hours. After incubation, the cells were transferred to V-bottom plate and pelleted at 1500 rpm for 5 min. The cells were resuspended in growth medium (IMDM with glutamine, non-essential amino acid, and pen-strep). After an overnight incubation, the monocytes were stimulated by application of LPS (Sigma) at 1 ng/ml for 3 hours to increase expression of TNF-α expression levels. After induction by LPS, cells were collected as above for mRNA quantification, and supernatant was saved for protein quantification if desired.
For mRNA measurement, branch DNA technology from Genospectra (CA) was used according to manufacturer's specification. To quantitate mRNA level in the cells, both house keeping gene (cypB) and target gene (TNF-α) mRNA were measured, and the reading for TNF-α was normalized with cypB to obtain relative luminescence unit. […]

in vitro = details: mouse, mouse tail fibroblast (MTF) cells
Method: Fluorescence activated cell sorting (FACS) analysis were performed using Beckman Coulter FC500 cell analyzer (Fullerton, Calif.). The instrument was adjusted according to the fluorescence probes used (FAM or Cy5 for siRNA and FITC and PE for CD14). Propidium iodide (Fluka, St Louis) and AnnexinV (R&D systems, Minneapolis) were used as indicators for cell viability and cytotoxicity. A brief step-by-step protocol is detailed below. • (a) After exposure to the complex of siRNA/peptide, cells were incubated for at least 3 hours. • (b) Wash cells with 200 μl PBS. • (c) Detach cells with 15 μl TE, incubate at 370 C. • (d) Re-suspend cells in five wells with 30 μl FACS solution (PBS with 0.5% BSA, and 0.1% sodium Azide). • (e) Combine all five wells into a tube. • (f) Add PI (Propidium iodide) 5 μl into each tube. • (g) Analyze the cells with fluorescence activated cell sorting (FCAS) according to manufacturer's instructions.
For siRNA uptake analysis, cells were washed with PBS, treated with trypsin (attached cells only), and then analyzed by flow cytometry. […] In order to differentiate the cellular uptake from the membrane insertion of fluorescence labeled siRNA, trypan blue was used to quench the fluorescence on the cell membrane surface.
FITC-tagged peptides were diluted in Opti-MEM® media (Invitrogen) for about 5 minutes at room temperature and then added to cells. Cells were transfected for 3 hours at and washed with PBS, treated with trypsin, and then analyzed by flow cytometry. Cell viability was determined as above. Cellular uptake was distinguished from the membrane insertion using trypan blue to quench any fluorescence on the cell membrane surface.

[3] = PN73 mutant series, peptide 0.63 μM
[4] = PN73 mutant series, peptide 1.25 μM
[5] = PN73 mutant series, peptide 2.5 μM
[6] = PN73 mutant series, peptide 5 μM

| Molecule | % Peptide Cell-Uptake ([1]; peptide 10 μM) | Peptide FITC MFI ([1]; peptide 10 μM) | viability at 0.63 µM (in vitro) | viability at 1.25 µM (in vitro) | viability at 2.5 µM (in vitro) | viability at 5 µM (in vitro) | % siRNA Cell-Uptake [2, 3] | siRNA Cy5 MFI [2, 3] | % siRNA Cell-Uptake [2, 4] | siRNA Cy5 MFI [2, 4] | % siRNA Cell-Uptake [2, 5] | siRNA Cy5 MFI [2, 5] | % siRNA Cell-Uptake [2, 6] | siRNA Cy5 MFI [2, 6] | also measured |
| --- | --- | --- | --- | --- | --- | --- | --- | --- | --- | --- | --- | --- | --- | --- | --- |
| KRSRKESYSVYVYKVLKQ-GK[EPSILON-5CFG-amide (KRSRKESYSVYVYKVLKQG-{K(5CF)-Gly-NH2}) [PN654] | 95 (10 μM) % | 10 (10 μM) |  |  |  |  |  |  |  |  |  |  |  |  | % siRNA Cell-Uptake ([2]; peptide 10 μM): 27 (10 μM) %; siRNA Cy5 MFI ([2]; peptide 10 μM, relative values): 14 (10 μM); siRNA knockdown activity of TNF-α mRNA, in words (hTNF-α mRNA): moderate knockdown activity for both the A19S21 and 21/21 siRNAs but not for the LC20 siRNA |
| CC(C)C[C@H](NC(=O)[C@@H](NC(=O)[C@H](CCCCN)NC(=O)[C@H](Cc1ccc(O)cc1)NC(=O)[C@@H](NC(=O)[C@H](Cc1ccc(O)cc1)NC(=O)[C@@H](NC(=O)[C@H](Cc1c[nH]c2ccccc12)NC(=O)[C@H](Cc1ccc(O)cc1)NC(=O)[C@H](CO)NC(=O)[C@H](CCC(=O)O)NC(=O)[C@H](CCCCN)NC(=O)[C@H](CCCNC(=N)N)NC(=O)[C@H](CO)NC(=O)[C@H](CCCNC(=N)N)NC(=O)[C@H](CCCCN)NC(=O)[C@H](CCCNC(=N)N)NC(=O)[C@H](CCCCN)NC(=O)[C@H](CCCCN)NC(=O)CNC(=O)[C@H](CC(=O)O)NC(=O)[C@H](CCCCN)NC(=O)[C@H](CCCCN)NC(=O)[C@H](CCC(N)=O)NC(=O)[C@H](C)NC(=O)[C@H](CCCCN)NC(=O)[C@@H](NC(=O)[C@@H](NC(=O)[C@H](C)NC(=O)[C@H](CCCCN)NC(=O)[C@H](CCCCN)NC(=O)[C@H](CO)NC(=O)CNC(=O)[C@@H](N)CCCCN)C(C)C)[C@@H](C)O)C(C)C)C(C)C)C(C)C)C(=O)N[C@@H](CCCCN)C(=O)N[C@@H](CCC(N)=O)C(N)=O [PN644] |  |  | 88% | 90% | 86% | 87% | 67% | 4 | 71% | 8 | 70% | 24 | 83% | 37 |  |
| CC(C)C[C@H](NC(=O)[C@@H](NC(=O)[C@H](CCCCN)NC(=O)[C@H](Cc1ccc(O)cc1)NC(=O)[C@@H](NC(=O)[C@H](Cc1ccc(O)cc1)NC(=O)[C@@H](NC(=O)[C@H](CO)NC(=O)[C@H](Cc1ccc(O)cc1)NC(=O)[C@H](CO)NC(=O)[C@H](Cc1c[nH]c2ccccc12)NC(=O)[C@H](CCCCN)NC(=O)[C@H](CCCNC(=N)N)NC(=O)[C@H](CO)NC(=O)[C@H](CCCNC(=N)N)NC(=O)[C@H](CCCCN)NC(=O)[C@H](CCCNC(=N)N)NC(=O)[C@H](CCCCN)NC(=O)[C@H](CCCCN)NC(=O)CNC(=O)[C@H](CC(=O)O)NC(=O)[C@H](CCCCN)NC(=O)[C@H](CCCCN)NC(=O)[C@H](CCC(N)=O)NC(=O)[C@H](C)NC(=O)[C@H](CCCCN)NC(=O)[C@@H](NC(=O)[C@@H](NC(=O)[C@H](C)NC(=O)[C@H](CCCCN)NC(=O)[C@H](CCCCN)NC(=O)[C@H](CO)NC(=O)CNC(=O)[C@@H](N)CCCCN)C(C)C)[C@@H](C)O)C(C)C)C(C)C)C(C)C)C(=O)N[C@@H](CCCCN)C(=O)N[C@@H](CCC(N)=O)C(N)=O [PN645] |  |  | 84% | 89% | 90% | 90% | 68% | 5 | 70% | 11 | 78% | 21 | 88% | 28 |  |
| CC(C)C[C@H](NC(=O)[C@@H](NC(=O)[C@H](CCCCN)NC(=O)[C@H](Cc1ccc(O)cc1)NC(=O)[C@@H](NC(=O)[C@H](Cc1ccc(O)cc1)NC(=O)[C@@H](NC(=O)[C@H](CO)NC(=O)[C@H](Cc1ccc(O)cc1)NC(=O)[C@H](CO)NC(=O)[C@H](Cc1ccccc1)NC(=O)[C@H](CCCCN)NC(=O)[C@H](CCCNC(=N)N)NC(=O)[C@H](CO)NC(=O)[C@H](CCCNC(=N)N)NC(=O)[C@H](CCCCN)NC(=O)[C@H](CCCNC(=N)N)NC(=O)[C@H](CCCCN)NC(=O)[C@H](CCCCN)NC(=O)CNC(=O)[C@H](CC(=O)O)NC(=O)[C@H](CCCCN)NC(=O)[C@H](CCCCN)NC(=O)[C@H](CCC(N)=O)NC(=O)[C@H](C)NC(=O)[C@H](CCCCN)NC(=O)[C@@H](NC(=O)[C@@H](NC(=O)[C@H](C)NC(=O)[C@H](CCCCN)NC(=O)[C@H](CCCCN)NC(=O)[C@H](CO)NC(=O)CNC(=O)[C@@H](N)CCCCN)C(C)C)[C@@H](C)O)C(C)C)C(C)C)C(C)C)C(=O)N[C@@H](CCCCN)C(=O)N[C@@H](CCC(N)=O)C(N)=O [PN646] |  |  | 81% | 85% | 87% | 92% | 67% | 4 | 70% | 10 | 73% | 24 | 88% | 24 |  |
| YKVLKQ-GK[EPSILON-5CFG-amide [PN651] | 90 (10 μM) % | 5 (10 μM) |  |  |  |  |  |  |  |  |  |  |  |  | % siRNA Cell-Uptake ([2]; no peptide concentration printed): 0%; siRNA Cy5 MFI ([2]; peptide .65 μM, relative values): 3 (.65 μM) |
| KVLKQ-GK[EPSILON-5CFG-amide [PN768] |  |  |  |  |  |  |  |  |  |  |  |  |  |  | % Peptide Cell-Uptake ([1]; peptide 50 µM): 91 (50 µM) %; Peptide FITC MFI ([1]; peptide 50 μM): 9 (50 μM) |
| VYVYKVLKQ-GK[EPSILON-5CFG-amide (VYVYKVLKQG-{K(5CF)-Gly-NH2}) [PN652] | 86 (10 μM) % | 5 (10 μM) |  |  |  |  |  |  |  |  |  |  |  |  | % siRNA Cell-Uptake ([2]; peptide 10 μM): 1.8 (10 μM) %; siRNA Cy5 MFI ([2]; peptide 10 μM, relative values): 5 (10 μM) |
| KGSFKAVTKAQKKFGKKRKRSRKSFSVYVYKVLKQ-NH2 [PN729] |  |  | 82% | 91% | 92% | 90% | 61% | 4 | 69% | 10 | 79% | 16 | 86% | 30 |  |
| KGSFKAVTKAQKKDGKKRKRSFKFSYSVYVYKVLKQ-NH2 [PN647] |  |  | 85% | 83% | 88% | 87% | 71% | 13 | 74% | 34 | 83% | 39 | 85% | 41 |  |
